# Laboratory results from US20230087118A1, “IMIDAZO[1,2-a][sequence] DERIVATIVES AND THEIR USE IN THE TREATMENT OF DISEASE” (priority 2019, published 2023).
# Where a name gives a salt, the structure may show the parent alone. Read-outs that look alike come from different tables or passages of the source.
# Target: T1, IRAK4 (Homo sapiens, UniProt Q9NWZ3)
# T1 sequence (Q9NWZ3 1-460): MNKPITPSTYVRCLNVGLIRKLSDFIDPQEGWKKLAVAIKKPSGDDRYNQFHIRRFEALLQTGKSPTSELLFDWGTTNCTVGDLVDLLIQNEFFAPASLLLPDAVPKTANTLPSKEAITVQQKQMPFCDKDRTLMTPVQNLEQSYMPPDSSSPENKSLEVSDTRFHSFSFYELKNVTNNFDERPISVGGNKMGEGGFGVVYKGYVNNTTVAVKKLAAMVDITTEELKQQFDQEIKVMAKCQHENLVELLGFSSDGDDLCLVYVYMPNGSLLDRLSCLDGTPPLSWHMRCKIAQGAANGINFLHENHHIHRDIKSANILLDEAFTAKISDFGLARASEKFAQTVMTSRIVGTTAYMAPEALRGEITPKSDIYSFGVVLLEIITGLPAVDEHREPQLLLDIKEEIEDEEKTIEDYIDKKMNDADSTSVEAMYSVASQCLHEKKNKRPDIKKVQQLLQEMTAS
# Assay: biochemical
# [1] = IRAK4 Biochemical Assay (1 mM ATP, 2 h) IC50 (μM), 1 mM ATP, 2 h, 100 pM IRAK4
SMILES,IC50,IC50 [1]
"CC(C)Oc1nc2nc(C34COC(C)(C3)C4)cn2cc1C(=O)Nc1cccc(C(F)F)c1 [Example 386, N-(3-(difluoromethyl)phenyl)-7-isopropoxy-2-(1-methyl-2-oxabicyclo[2.1.1]hexan-4-yl)imidazo[1,2-a]pyrimidine-6-carboxamide]",0.0012 µM,–
"CCC(C)Oc1nc2nc(C34COC(CF)(C3)C4)cn2cc1C(=O)Nc1cnn2cc(C)cnc12 (single isomer, unassigned) [Example 645]",0.0005 µM,–
COc1ncccc1NC(=O)c1cn2cc(C3CCOCC3)nc2c(OC)n1 [Example 208],0.0209 µM,–
"CCOc1nc(C(=O)Nc2cccnc2OC)cn2cc([C@H]3CCOC3)nc12 (single isomer, unassigned) [Example 598]",0.0041 µM,–
"CCO[C@H]1C[C@@H](Oc2cc3nc(C4CCOCC4)cn3cc2C(=O)Nc2cccc(C(F)F)n2)C1 [Example 436, N-(6-(difluoromethyl)pyridin-2-yl)-7-((1s,3s)-3-ethoxycyclobutoxy)-2-(tetrahydro-2H-pyran-4-yl)imidazo[1,2-a]pyridine-6-carboxamide]",0.0008 µM,–
"COc1nc(C(=O)Nc2cccc(C(F)F)n2)cn2cc(C34COC(C)(C3)C4)nc12 [Example 231, N-(6-(difluoromethyl)pyridin-2-yl)-8-methoxy-2-(1-methyl-2-oxabicyclo[2.1.1]hexan-4-yl)imidazo[1,2-a]pyrazine-6-carboxamide]",0.0071 µM,–
"CC12CCC(c3cn4cc(C(=O)Nc5cnn6cccnc56)c(OC5CCC5)cc4n3)(CO1)C2 (centres unmarked) [Example 425, 7-Cyclobutoxy-2-(1-methyl-2-oxabicyclo[2.2.1]heptan-4-yl)-N-(pyrazolo[1,5-a]pyrimidin-3-yl)imidazo[1,2-a]pyridine-6-carboxamide]",0.0004 µM,–
"CC(C)Oc1cc2nc(C(C)(F)F)cn2cc1C(=O)Nc1cccc(C(F)F)n1 [Example 98, 2-(1,1-Difluoroethyl)-N-(6-(difluoromethyl)pyridin-2-yl)-7-isopropoxyimidazo[1,2-a]pyridine-6-carboxamide]",–,0.0038 µM
"CC(C)Oc1nc2nc(C34CCC(C)(CC3)OC4)cn2cc1C(=O)Nc1cccn(C)c1=O [Example 654, 7-isopropoxy-N-(1-methyl-2-oxo-1,2-dihydropyridin-3-yl)-2-(1-methyl-2-oxabicyclo[2.2.2]octan-4-yl)imidazo[1,2-a]pyrimidine-6-carboxamide]",–,0.0005 µM
"CC12CCC(c3cn4cc(C(=O)Nc5cnc6cccnn56)c(OC5CCC5)cc4n3)(CO1)C2 (centres unmarked) [Example 649, 7-cyclobutoxy-N-(imidazo[1,2-b]pyridazin-3-yl)-2-(1-methyl-2-oxabicyclo[2.2.1]heptan-4-yl)imidazo[1,2-a]pyridine-6-carboxamide]",0.0002 µM,–
"CC(C)Oc1cc2nc(C34COC(CF)(C3)C4)cn2cc1C(=O)Nc1cccc(C(F)F)n1 [Example 289, N-(6-(difluoromethyl)pyridin-2-yl)-2-(1-(fluoromethyl)-2-oxabicyclo[2.1.1]hexan-4-yl)-7-isopropoxyimidazo[1,2-a]pyridine-6-carboxamide]",–,0.0002 µM
"COCCCc1cn2cc(C(=O)Nc3cccc(C(F)F)n3)c(OC(C)C)cc2n1 [Example 102, N-(6-(difluoromethyl)pyridin-2-yl)-7-isopropoxy-2-(3-methoxypropyl)imidazo[1,2-a]pyridine-6-carboxamide]",0.0004 µM,–
"CC(C)Oc1nc2nc(C34COC(C)(C3)C4)cn2cc1C(=O)Nc1cccc(F)c1Cl [Example 399, N-(2-chloro-3-fluorophenyl)-7-isopropoxy-2-(1-methyl-2-oxabicyclo[2.1.1]hexan-4-yl)imidazo[1,2-a]pyrimidine-6-carboxamide]",0.003 µM,–
"O=C(Nc1cccc(C(F)F)n1)c1cn2cc(C3CC3)nc2cc1OCC1CC(F)(F)C1 [Example 471, 2-Cyclopropyl-7-((3,3-difluorocyclobutyl)methoxy)-N-(6-(difluoromethyl)pyridin-2-yl)imidazo[1,2-a]pyridine-6-carboxamide]",–,0.0058 µM
"CC(C)Oc1cc2nc(C3CC3)cn2cc1C(=O)Nc1cccc(CO)n1 [Example 483, 2-Cyclopropyl-N-(6-(hydroxymethyl)pyridin-2-yl)-7-isopropoxyimidazo[1,2-a]pyridine-6-carboxamide]",0.009 µM,–
"CC(C)Oc1nc2nc(C34COC(C3)C4)cn2cc1C(=O)Nc1cnn2cccnc12 [Example 430, 2-(2-Oxabicyclo[2.1.1]hexan-4-yl)-7-isopropoxy-N-(pyrazolo[1,5-a]pyrimidin-3-yl)imidazo[1,2-a]pyrimidine-6-carboxamide]",0.0027 µM,–

# The next lines start with the values.
IC50,IC50 [1],SMILES
0.0003 µM,–,"CC(C)Oc1cc2nc(C34CCC(C)(C3)OC4)cn2cc1C(=O)Nc1cccc(C#N)n1 (centres unmarked) [Example 509, N-(6-cyanopyridin-2-yl)-7-isopropoxy-2-(1-methyl-2-oxabicyclo[2.2.1]heptan-4-yl)imidazo[1,2-a]pyridine-6-carboxamide]"
0.0026 µM,–,"Cn1ccc(NC(=O)c2cn3cc([C@@]45CC[C@@](C)(C4)OC5)nc3nc2OC2CCCC2)n1 (single isomer, unassigned) [Example 635]"
–,0.0071 µM,"CC12CC(c3cn4cc(C(=O)Nc5cccn(C(F)F)c5=O)c(OCC5(F)CCOCC5)cc4n3)(CO1)C2 [Example 456, N-(1-(difluoromethyl)-2-oxo-1,2-dihydropyridin-3-yl)-7-((4-fluorotetrahydro-2H-pyran-4-yl)methoxy)-2-(1-methyl-2-oxabicyclo[2.1.1]hexan-4-yl)imidazo[1,2-a]pyridine-6-carboxamide]"
–,0.001 µM,"CC(C)Oc1nc2nc(C34COC(C)(C3)C4)cn2cc1C(=O)Nc1cccc2c1ncn2C [Example 379, 7-Isopropoxy-N-(1-methyl-1H-benzo[d]imidazol-4-yl)-2-(1-methyl-2-oxabicyclo[2.1.1]hexan-4-yl)imidazo[1,2-a]pyrimidine-6-carboxamide trifluoroacetate]"
0.0001 µM,–,"CC(C)Oc1nc2nc([C@@]34CC[C@@](C)(C3)OC4)cn2cc1C(=O)Nc1cccn(C(F)F)c1=O (single isomer, unassigned) [Example 628]"
0.0018 µM,–,"CC(C)Oc1nc(C(=O)Nc2ccn(C)n2)cn2cc(C34CCC(C)(CC3)OC4)nc12 [Example 429, 8-Isopropoxy-N-(1-methyl-1H-pyrazol-3-yl)-2-(1-methyl-2-oxabicyclo[2.2.2]octan-4-yl)imidazo[1,2-a]pyrazine-6-carboxamide]"
0.0038 µM,–,"CC(C)Oc1cc2nc(C34CCC(C)(C3)OC4)cn2cc1C(=O)Nc1ccn(C(F)(F)F)n1 (centres unmarked) [Example 506, 7-Isopropoxy-2-(1-methyl-2-oxabicyclo[2.2.1]heptan-4-yl)-N-(1-(trifluoromethyl)-1H-pyrazol-3-yl)imidazo[1,2-a]pyridine-6-carboxamide]"
0.0034 µM,–,"CC12CC(c3cn4cc(C(=O)Nc5cccn(C(F)F)c5=O)c(OC5COC5)cc4n3)(CO1)C2 [Example 441, N-(1-(difluoromethyl)-2-oxo-1,2-dihydropyridin-3-yl)-2-(1-methyl-2-oxabicyclo[2.1.1]hexan-4-yl)-7-(oxetan-3-yloxy)imidazo[1,2-a]pyridine-6-carboxamide]"
–,0.0014 µM,"CC1(C)CC(Oc2cc3nc(C45COC(C)(C4)C5)cn3cc2C(=O)Nc2cccn(C(F)F)c2=O)CO1 (centres unmarked) [Example 447, N-(1-(difluoromethyl)-2-oxo-1,2-dihydropyridin-3-yl)-7-((5,5-dimethyltetrahydrofuran-3-yl)oxy)-2-(1-methyl-2-oxabicyclo[2.1.1]hexan-4-yl)imidazo[1,2-a]pyridine-6-carboxamide]"
0.0053 µM,–,"CC(C)Oc1nc2nc(C34COC(C)(C3)C4)cn2cc1C(=O)Nc1ccccn1 [Example 354, 7-Isopropoxy-2-(1-methyl-2-oxabicyclo[2.1.1]hexan-4-yl)-N-(pyridin-2-yl)imidazo[1,2-a]pyrimidine-6-carboxamide]"
0.0092 µM,–,"COc1cc2nc(C3CCOCC3)cn2cc1C(=O)Nc1cccn2nccc12 [Example 479, 7-Methoxy-N-(pyrazolo[1,5-a]pyridin-4-yl)-2-(tetrahydro-2H-pyran-4-yl)imidazo[1,2-a]pyridine-6-carboxamide]"
6.53 µM,–,"COCc1nc2nc(C34COC(C)(C3)C4)cn2cc1C(=O)Nc1cnn2cc(C)cnc12 [Example 352, 7-(Methoxymethyl)-2-(1-methyl-2-oxabicyclo[2.1.1]hexan-4-yl)-N-(6-methylpyrazolo[1,5-a]pyrimidin-3-yl)imidazo[1,2-a]pyrimidine-6-carboxamide]"
–,0.063 µM,"CC(C)Oc1cc2nc(C34COC(C)(C3)C4)cn2cc1C(=O)Nc1cc2ccccn2n1 [Example 298, 7-Isopropoxy-2-(1-methyl-2-oxabicyclo[2.1.1]hexan-4-yl)-N-(pyrazolo[1,5-a]pyridin-2-yl)imidazo[1,2-a]pyridine-6-carboxamide trifluoroacetate]"
0.0067 µM,–,"CC(C)Oc1cc2nc(C3CC3)cn2cc1C(=O)Nc1cccc(OCC(F)F)n1 [Example 482, 2-Cyclopropyl-N-(6-(2,2-difluoroethoxy)pyridin-2-yl)-7-isopropoxyimidazo[1,2-a]pyridine-6-carboxamide]"
5.69 µM,–,COc1nc(C(=O)Nc2ccnn2C)cn2cc(C3CCOCC3)nc12 [Example 89]
0.0001 µM,–,"CC(C)Oc1c(C(=O)Nc2cccc(-c3cnn(C)c3)n2)cn2cc(C34COC(C)(C3)C4)nc2c1F [Example 393, 8-Fluoro-7-isopropoxy-N-(6-(1-methyl-1H-pyrazol-4-yl)pyridin-2-yl)-2-(1-methyl-2-oxabicyclo[2.1.1]hexan-4-yl)imidazo[1,2-a]pyridine-6-carboxamide]"
